Laboratory results reported in the NIST ThermoML archive (doi:10.1016/j.fluid.2009.02.001).
Numbers after ± are expanded uncertainties.

What was measured:
[1] = for vapor or sublimation pressure: Liquid
[2] = Molar enthalpy of transition or fusion; settings: Crystal; DSC

CC(=O)Nc1ccc(O)cc1 [N-acetyl-p-aminophenol]
[1]
Settings | Normal melting temperature [°C] | vapor or sublimation pressure [kPa]
477.3 K, Isothermal thermogravimetry | – | 0.194 ± 0.02
477.3 K, Nonisothermal thermogravimetry | – | 0.197 ± 0.02
478.8 K, Isothermal thermogravimetry | – | 0.1996 ± 0.023
479.3 K, Isothermal thermogravimetry | – | 0.206 ± 0.023
479.3 K, Nonisothermal thermogravimetry | – | 0.204 ± 0.024
480 K, Isothermal thermogravimetry | – | 0.225 ± 0.029
480.8 K, Isothermal thermogravimetry | – | 0.2307 ± 0.03
481.4 K, Isothermal thermogravimetry | – | 0.249 ± 0.027
481.4 K, Nonisothermal thermogravimetry | – | 0.25 ± 0.029
482 K, Isothermal thermogravimetry | – | 0.2601 ± 0.032
482.9 K, Isothermal thermogravimetry | – | 0.2539 ± 0.028
483.2 K, Isothermal thermogravimetry | – | 0.276 ± 0.029
483.2 K, Nonisothermal thermogravimetry | – | 0.259 ± 0.031
483.8 K, Isothermal thermogravimetry | – | 0.2861 ± 0.032
484.7 K, Isothermal thermogravimetry | – | 0.2838 ± 0.033
485.2 K, Isothermal thermogravimetry | – | 0.303 ± 0.033
485.9 K, Isothermal thermogravimetry | – | 0.3199 ± 0.038
486.7 K, Isothermal thermogravimetry | – | 0.3264 ± 0.04
487.3 K, Isothermal thermogravimetry | – | 0.336 ± 0.037
487.3 K, Nonisothermal thermogravimetry | – | 0.341 ± 0.036
487.9 K, Isothermal thermogravimetry | – | 0.3679 ± 0.04
488.8 K, Isothermal thermogravimetry | – | 0.3624 ± 0.041
489.3 K, Isothermal thermogravimetry | – | 0.365 ± 0.038
489.3 K, Nonisothermal thermogravimetry | – | 0.315 ± 0.045
490 K, Isothermal thermogravimetry | – | 0.3891 ± 0.043
490.8 K, Isothermal thermogravimetry | – | 0.3978 ± 0.047
491.2 K, Isothermal thermogravimetry | – | 0.409 ± 0.047
491.2 K, Nonisothermal thermogravimetry | – | 0.468 ± 0.057
491.8 K, Isothermal thermogravimetry | – | 0.437 ± 0.046
492.7 K, Isothermal thermogravimetry | – | 0.449 ± 0.052
493.3 K, Isothermal thermogravimetry | – | 0.44 ± 0.047
493.3 K, Nonisothermal thermogravimetry | – | 0.447 ± 0.046
493.9 K, Isothermal thermogravimetry | – | 0.482 ± 0.051
494.8 K, Isothermal thermogravimetry | – | 0.4882 ± 0.058
495.4 K, Isothermal thermogravimetry | – | 0.492 ± 0.051
495.4 K, Nonisothermal thermogravimetry | – | 0.504 ± 0.063
496 K, Isothermal thermogravimetry | – | 0.524 ± 0.059
496.9 K, Isothermal thermogravimetry | – | 0.5169 ± 0.059
497.2 K, Isothermal thermogravimetry | – | 0.554 ± 0.059
497.9 K, Isothermal thermogravimetry | – | 0.5547 ± 0.061
498.7 K, Isothermal thermogravimetry | – | 0.5818 ± 0.064
499.3 K, Isothermal thermogravimetry | – | 0.61 ± 0.067
499.3 K, Nonisothermal thermogravimetry | – | 0.669 ± 0.073
499.9 K, Isothermal thermogravimetry | – | 0.6246 ± 0.072
500.8 K, Isothermal thermogravimetry | – | 0.6364 ± 0.069
501.4 K, Isothermal thermogravimetry | – | 0.677 ± 0.074
502 K, Isothermal thermogravimetry | – | 0.6832 ± 0.079
502.9 K, Isothermal thermogravimetry | – | 0.7129 ± 0.079
503.2 K, Isothermal thermogravimetry | – | 0.733 ± 0.083
503.2 K, Nonisothermal thermogravimetry | – | 0.729 ± 0.079
503.4 K, Nonisothermal thermogravimetry | – | 0.838 ± 0.09
503.8 K, Isothermal thermogravimetry | – | 0.765 ± 0.087
504.7 K, Isothermal thermogravimetry | – | 0.7889 ± 0.09
505.2 K, Isothermal thermogravimetry | – | 0.815 ± 0.087
505.2 K, Nonisothermal thermogravimetry | – | 0.861 ± 0.091
505.8 K, Isothermal thermogravimetry | – | 0.8468 ± 0.093
506.7 K, Isothermal thermogravimetry | – | 0.8517 ± 0.093
507.2 K, Isothermal thermogravimetry | – | 0.888 ± 0.094
507.2 K, Nonisothermal thermogravimetry | – | 0.945 ± 0.1
507.9 K, Isothermal thermogravimetry | – | 0.9142 ± 0.11
508.7 K, Isothermal thermogravimetry | – | 0.933 ± 0.098
509.3 K, Nonisothermal thermogravimetry | – | 1.037 ± 0.12
511.3 K, Nonisothermal thermogravimetry | – | 1.207 ± 0.12
513.4 K, Nonisothermal thermogravimetry | – | 1.178 ± 0.13
515.4 K, Nonisothermal thermogravimetry | – | 1.41 ± 0.17
517.2 K, Nonisothermal thermogravimetry | – | 1.544 ± 0.17
519.2 K, Nonisothermal thermogravimetry | – | 1.696 ± 0.18
521.3 K, Nonisothermal thermogravimetry | – | 1.757 ± 0.19
523.2 K, Nonisothermal thermogravimetry | – | 2.012 ± 0.23
525.3 K, Nonisothermal thermogravimetry | – | 2.197 ± 0.23
527.3 K, Nonisothermal thermogravimetry | – | 2.32 ± 0.26
529.2 K, Nonisothermal thermogravimetry | – | 2.607 ± 0.29
531.2 K, Nonisothermal thermogravimetry | – | 2.823 ± 0.3
533.3 K, Nonisothermal thermogravimetry | – | 3.064 ± 0.33
535.4 K, Nonisothermal thermogravimetry | – | 3.295 ± 0.35
537.2 K, Nonisothermal thermogravimetry | – | 3.552 ± 0.4
539.3 K, Nonisothermal thermogravimetry | – | 4.01 ± 0.43
541.3 K, Nonisothermal thermogravimetry | – | 4.144 ± 0.45
543.3 K, Nonisothermal thermogravimetry | – | 4.653 ± 0.52
545.4 K, Nonisothermal thermogravimetry | – | 5.059 ± 0.54
547.4 K, Nonisothermal thermogravimetry | – | 5.373 ± 0.57
549.2 K, Nonisothermal thermogravimetry | – | 5.759 ± 0.62
551.2 K, Nonisothermal thermogravimetry | – | 6.208 ± 0.67
553.2 K, Nonisothermal thermogravimetry | – | 6.719 ± 0.8
557.3 K, Nonisothermal thermogravimetry | – | 7.824 ± 0.79
559.4 K, Nonisothermal thermogravimetry | – | 8.304 ± 0.88
561.2 K, Nonisothermal thermogravimetry | – | 8.944 ± 0.96
Crystal, DTA | 172.5 ± 0.5 | –

Settings | Molar enthalpy of transition or fusion [kcal/mol]
[2] | 6.45 ± 0.478
